# Source: paper PMC12698445, “Phenolic profile of different solvent extracts of Reseda alba L. and evaluation of anti-quorum sensing, antioxidant, and enzyme inhibition activities” (Frontiers in Nutrition, 2025)
# Target: T1, fungal tyrosinase
# T1 construct: gene PPO3; only 'fungal' printed
# Assay: L-DOPA oxidation, […] nm
# Assay type: biochemical
# Conditions: L-DOPA substrate, pH 6.8, room temperature
smiles,measurement,value
O=c1cc(CO)occ1O [Kojic acid],Tyrosinase / IC50,23.80 ± 0.25 µg/mL
